# Read-outs that look alike come from different tables or passages of the source.
# What was measured:
# [1] = cited from earlier work
# [2] = cited from earlier work; remark: listed apart in the source
# [3] = cited from earlier work; remark: listed apart in the source
# [4] = cited from earlier work; remark: listed apart in the source
# [5] = saturated donor solution in water, receptor pH 7.4, 37° C., 0-26 hrs; compared to human, rat, pig skin
# [6] = Transdermal diffusion (cumulative flux) through rat skin samples; settings: rat skin samples of different ages, or rat versus human skin
# [7] = Transdermal diffusion, vertical Franz Cell, untreated membrane; format: in vitro ADME; settings: saturated donor solution in water, Sorensen's buffer pH 7.4 receptor, 37° C., 0-26 hrs
# Procedure: Conditions for HPLC analysis of flufenamic acid are as noted below: Column Used: Zorbax XDB C18, 3.9 mm×150 mm, 5 μm Mobile Phase Used: 90% Methanol+10% water containing 40 mM acetic acid; Detection wavelength: 280 nm.
# [8] = separate human skin samples compared
SMILES,"Aqueous Solubility, LogS [1]",Log D (pH 7.4) [2],Log P [3],also measured
COc1cc(Cc2cnc(N)nc2N)cc(OC)c1OC [Trimethoprim],−2.67,–,–,–
CCCCNc1ccc(C(=O)OCCN(C)C)cc1 [Tetracaine],−2.75,2.75,3.649,pKa [4]: 8.24
Clc1ccccc1C(c1ccccc1)(c1ccccc1)n1ccnc1 [Clotrimazole],−5.37,–,6.1,diffusion (cumulative flux) across treated membrane relative to skin [5]: high degree of correlation with human skin
"Oc1cc(Cl)ccc1Oc1ccc(Cl)cc1Cl [Triclosan/Irgasan, Triclosan]",–,–,4.76,–
O=C(O)Cc1ccccc1Nc1c(Cl)cccc1Cl [Diclofenac],–,0.95,4.05,–
CN1CCCC1c1cccnc1 (stereo not shown) [Nicotine],−0.24,0.02,0.72,diffusion (cumulative flux) through rat skin [6]: variability between the rat and human skin samples
O=C(c1ccccc1)c1ccc2n1CCC2C(=O)O (stereo not shown) [Ketorolac],−2.7,–,–,–
O=C(O)c1ccccc1Nc1cccc(C(F)(F)F)c1 [Flufenamic Acid],–,–,5.2,diffusion (cumulative flux) across untreated membrane relative to human skin [7]: better correlation to human skin than the treated membrane
CC(C(=O)O)c1ccc(-c2ccccc2)c(F)c1 (stereo not shown) [Flurbiprofen],−4.49,0.98,4.115,–
"CC(=O)Oc1ccccc1C(=O)O [Acetyl Salicylic Acid (Aspirin), Acetyl Salicylic Acid]",–,−1.89,–,–
CN(C)CCCN1c2ccccc2Sc2ccc(Cl)cc21 [Chlorpromazine],−5.01,3.22,5.203,–
C[C@]12CCC(=O)C=C1CC[C@@H]1[C@@H]2[C@@H](O)C[C@@]2(C)[C@H]1CC[C@]2(O)C(=O)CO [Hydrocortisone],–,–,1.462,pKa [4]: 12.48; diffusion (cumulative flux) through rat skin [6]: does not appear to show a high degree of correlation with human skin
"COC(=O)c1ccc(O)cc1 [Methyl paraben, methyl p-hydroxybenzoate]",–,–,–,diffusion (cumulative flux) through separate human skin samples [8]: high degree of variability between the different human skin samples
C[C@@H]1C[C@H]2[C@@H]3CCC4=CC(=O)C=C[C@]4(C)[C@@]3(F)[C@@H](O)C[C@]2(C)[C@@]1(O)C(=O)CO [Dexamethasone],−3.89,–,1.869,diffusion (cumulative flux) across treated membrane relative to skin [5]: diffusion similar to human and pig skin; Log P ([3]; listed as dexamethasone): 1.896; pKa [4]: 12.14
